Results as given in patent publication US10702572B2, “Methods and compounds to suppress viral genome release and packaging” (Carnegie Mellon University, priority 2015, dated 2020).
pEC50: −log10 of the molar value.

Tests used:
HCMV, strain AD169 = experiment: Plaque reduction assay in HFF cells; assay type: cell-based; settings: for pEC50: reduces viral replication by 50%; for EC90: reduces viral replication by 90%
Description: (§1) E-377 and DM2.1 strains of HSV-1 as well as the MS strain of HSV-2 were a gift of Jack Hill (Burroughs Wellcome). HCMV strain AD169 and VZV strain Ellen were obtained from the American Type Culture Collection (ATCC, Manassas, Va.).
(§2) Monolayers of HFF cells were prepared in six-well plates and incubated at 37° C. for 2 d to allow the cells to reach confluency. Media was then aspirated from the wells and 0.2 ml of virus was added to each of three wells to yield 20-30 plaques in each well. The virus was allowed to adsorb to the cells for 1 h and the plates were agitated every 15 minutes. Compounds were diluted in assay media consisting of MEM with Earl's salts supplemented with 2% FBS, L-glutamine, penicillin, and gentamycin. Solutions ranging from 300 μM to 0.1 μM were added to duplicate wells and the plates were incubated for various times, depending on the virus used. For HSV-1 and -2, the monolayers were then stained with 1% crystal violet in 20% methanol and the unbound dye removed by washing with dH2O. For all other assays, the cell monolayer was stained with 1% Neutral Red solution for 4 h then the stain was aspirated and the cells were washed with PBS. For all assays, plaques were enumerated using a stereomicroscope and the concentration of compound that reduced plaque formation by 50% (EC50) was interpolated from the experimental data.

in vitro = settings: human
DNA [1] = settings: literature values; cited from earlier work
[2] = rat; cited from earlier work
LD50 in rat = settings: conversion in brackets
DNA [3] = experiment: DNA condensation, internal experimental observations, dint; assay type: biochemical
HSV-1, strain E-377 = experiment: Plaque reduction assay in HFF cells; assay type: cell-based; settings: Human alphaherpesvirus 1, HFF; for pEC50: concentration that reduces viral replication by 50%, various trials, each with its control; for EC90: concentration that reduces viral replication by 90%
Description: as §1, §2

VZV, strain Ellen = experiment: Plaque reduction assay in HFF cells; assay type: cell-based; settings: for pEC50: Human alphaherpesvirus 3, reduces viral replication by 50%; for EC90: Human alphaherpesvirus 3, reduces viral replication by 90%
Description: HCMV strain AD169 and VZV strain Ellen were obtained from the American Type Culture Collection (ATCC, Manassas, Va.).
as §2, with “PBS.” for “PBS. For all assays, plaques were enumerated using a stereomicroscope and the concentration of compound that reduced plaque formation by 50% (EC50) was interpolated from the experimental data.”
However, unlike assays for HSV-1, HSV-2, MCMV and CMV compounds (where the compound is added to cells prior to virus addition), virus particles are not used in infection in assays for VZV where latent virus in the cells is induced to undergo a lytic infection, since the virions are unstable and infected cells. Thus, in the VZV study, bPEI is added to cell solution and virus is induced from within the cell by induction of lytic infectious cycle.

HSV-2, strain G = experiment: Plaque reduction assay in HFF cells; assay type: cell-based; settings: for pEC50: reduces viral replication by 50%
cell membrane = settings: cited from earlier work; for permeation of cell membranes: when complexed with free DNA
[4] = Parallel cytotoxicity assay in uninfected HFF cells; settings: human
phage λ = experiment: Intracapsid DNA transition temperature by ITC and SAXS; set-up: species or system bacteriophage λ; settings: for DNA transition temperature T*: WT DNA phage λ
Description: WT bacteriophage λ cI857, with a genome length of 48.5 kb was produced by thermal induction of lysogenic E. coli strain AE1 derived from the 52773 strain. Two phage λ mutants with shorter genome lengths (78 and 94% of the WT DNA length) were produced using a similar procedure. The receptor was the LamB protein purified from pop 154, a strain of E. coli K12 in which the LamB gene has been transduced from Shigella sonnei 3070. Phage and LamB purification details are described in Evilevitch A., et al., Osmotic pressure inhibition of DNA ejection from phage. Proc. Natl. Acad. Sci. U.S.A. 2003; 100:9292-9295 and Ivanovska I., et al., Internal DNA pressure modifies stability of WT phage. Proc. Natl. Acad. Sci. U.S.A. 2007; 104:9603-9608.
All calorimetric measurements were performed using the MicroCal iTC200 system manufactured by GE Healthcare, Life Sciences. […] J. Mol. Biol. 2010; 395:1079-1087.
Small angle X-ray scattering (SAXS) measurements were carried out at the 12-ID B station at the Advanced Photon Source at Argonne National Laboratory. A 12-KeV X-ray beam was used to illuminate the sample with an overall scattering vector q range from 0.006 to 0.850 Å-1. A total of 120 μl of phage solution (˜5×1013 pfu/ml) was injected into a flow-through glass capillary and the solution was oscillated during the SAXS measurement with a flow rate of 10 μl/s. Forty scans with 1 s X-ray exposure time were collected and averaged for each sample. A buffer solution of the dialysis buffer for phage samples was measured using the same SAXS setup, which was further subtracted as the background. After the background subtraction, the scattered intensity I versus q was plotted and the DNA peak region was truncated from 0.18 Å-1 to 0.33 Å-1. This DNA diffraction peak was fitted with a Gaussian curve plus a linear background using function (1), where q0 is the peak center, w is the peak width, A0 is the peak area, k is the slope of the linear background and c is the offset.
[formula] […] Single-Molecule Fluorescence Measurements of Phage Ejection Ensemble Kinetics.
ITC and SAXS assays were used to determine DNA transition temperatures for WT λ-DNA length phage in MgCl2 Tris-buffer with MgCl2 concentrations varied between 5 and 50 mM, see FIGS. 3A-3C. The intracapsid DNA transition occurs at temperature T*, corresponding to either a discontinuity in the linear dependence of ΔHej on temperature (FIG. 3A) or to an abrupt change in the linear decay of the DNA diffraction peak area versus temperature measured by SAXS (FIG. 3B). DNA transition temperatures as a function of Mg-concentration determined by both techniques are in good agreement with each other and are summarized in FIG. 3C. […] However, the inventors have previously shown that at DNA packing density in phage λ, the screening effect of Mg-ions will become progressively smaller with increasing Mg-concentration due to the counter-ion saturation (Evilevitch A., et al., Effects of salt concentrations and bending energy on the extent of ejection of phage genomes. Biophys. J. 2008; 94:1110-1120). Furthermore, if the Mg ion concentration continues to increase, the counterions are forced into regions on the helices that begin to increase the effective repulsions between packaged DNA strands. […]

[5] = test system: HSV-1, strain DM2.1 (a resistant isolate); experiment: Plaque reduction assay in HFF cells; assay type: cell-based; settings: Human alphaherpesvirus 1, HFF
Description: as §1, §2

[6] = Human betaherpesvirus 5, AD169, HFF
[7] = CC50, parallel to HCMV AD169 assay
[8] = CC50, parallel to HSV-1 E-377 assay, reduces cell viability by 50%
[9] = CC50, parallel to HSV-2 strain G assay
[10] = CC50, parallel to VZV Ellen assay
[11] = CC50, parallel to HSV-1 DM2.1 assay

For `Nc1nc(O)c2ncn(COC(CO)CO)c2n1` [Ganciclovir, reference compound], the pEC50 (HCMV, strain AD169; [6]) was 6.46, the pEC50 (HCMV, strain AD169) was 6.52 and the CC50 (in vitro; [7]) was > 150 µM.
For `Cl.Cl.Cl.NCCCCNCCCN` [Spermidine trihydrochloride], the “dint (DNA condensation observed experimentally)” value (DNA [1]) is listed as 28.8-29.7 Å.
In the case of `CCCCCCCCCCCC[N+](C)(C)C.[Br-]` [DTAB, dodecyltrimethylammonium bromide], the LD50 [2] is listed as 200 to 1000 mg/kg and the LD50 as concentration (LD50 in rat) is listed as 0.6 to 3.2 mM.
In the case of `N.N.N.N.N.N.[Cl-].[Cl-].[Cl-].[Co+3]` [Hexaamminecobalt(III) chloride], the “DNA condensed to (internal experimental observations)” value (DNA [3]; 2-100 mM) is given as 28 Å and the “dint (DNA condensation observed experimentally)” value (DNA [1]) is given as 27.8-28.2 Å.
In the case of Trilysine, the “dint (DNA condensation observed experimentally)” value (DNA [1]) is given as 38.9 Å.
For `CCCCCCCCCCCCCC[N+](C)(C)C.[Br-]` [TTAB, myristyltrimethylammonium bromide], the LD50 [2] is listed as 3900 mg/kg and the LD50 as concentration (LD50 in rat) is listed as ~11.6 mM.
With `NCCNC(=O)CCN(CCC(=O)NCCN)CCN(CCC(=O)NCCN)CCC(=O)NCCN` [PAMAM Dendrimer G0, PAMAM dendrimer, ethylenediamine core, generation 0.0 solution] the “dint, internal observations” value (DNA [3]; 0.15-2.50 mM) was 32-35.2 Å, the pEC50 (HSV-1, strain E-377) was 6.54 and the EC90 (HSV-1, strain E-377) was > 3 µM. For the same compound, the pEC50 (HCMV, strain AD169; [6]) was < 6.22, the EC90 (HCMV, strain AD169; [6]) was > 0.6 µM and the pEC50 (VZV, strain Ellen) was < 6.22. The EC90 (VZV, strain Ellen) was > 0.6 µM, the “dint (DNA condensation observed experimentally)” value (DNA [1]) was 31 Å and the pEC50 (HSV-2, strain G; Human alphaherpesvirus 2, HFF) was 7.05. For the same compound, the EC90 (HSV-2, strain G; Human alphaherpesvirus 2, HFF, reduces viral replication by 90%) was > 3 µM, the “permeation of the cell membrane” value (cell membrane; compound alone, previously shown) was “permeate the cell membrane” and the CC50 [4, 7] was 1.39 µM. For the same compound, the CC50 [4, 8] was 3.79 µM, the CC50 [4, 9] was 4.77 µM and the CC50 [4, 10] was 1.17 µM.
With `[Cl-].[Cl-].[Mg+2]` [MgCl2] the “DNA transition temperature T*” value (phage λ; 5 mM MgCl2 Tris-buffer) was ~22 °C, the “DNA transition temperature T*” value (phage λ; 20 mM MgCl2 Tris-buffer) was ~37 °C and the “DNA transition temperature T*” value (phage λ; 50 mM MgCl2 Tris-buffer) was ~35 °C.
For Tetralysine (KKKK; Synthetic Lys4+), the “dint (DNA condensation observed experimentally)” value (DNA [1]) is given as 34.9 Å.
In the case of Tetraornithine, the “dint (DNA condensation observed experimentally)” value (DNA [1]) is listed as 32.2 Å.
For Triornithine, the “dint (DNA condensation observed experimentally)” value (DNA [1]) is given as 35.6 Å.
For `CCCCCCCCCCCCCCCC[N+](C)(C)C.[Br-]` [CTAB, hexadecyltrimethylammonium bromide], the LD50 [2] is listed as 410 mg/kg and the LD50 as concentration (LD50 in rat) is listed as ~1.1 mM.
For `Nc1ccn(C[C@@H](CO)OCP(=O)(O)O)c(=O)n1` [Cidofovir, reference compound], the pEC50 [5] was 5.58, the EC90 [5] was > 150 µM and the CC50 (in vitro; [11]) was > 150 µM.
In the case of `Nc1nc2c(ncn2COCCO)c(=O)[nH]1` [Acyclovir, reference compound], the pEC50 [5] was < 3.82, the EC90 [5] was > 150 µM and the pEC50 (VZV, strain Ellen) was 5.29. For the same compound, the EC90 (VZV, strain Ellen) was 23.8 µM, the CC50 (in vitro; [11]) was > 150 µM and the CC50 (in vitro; [8]) was > 150 µM. The CC50 (in vitro; [9]) was > 150 µM, the CC50 (in vitro; [10]) was > 150 µM and the pEC50 (HSV-2, strain G; Human alphaherpesvirus 2, HFF) was 5.43. It also gave a pEC50 (HSV-2, strain G) of 5.54.
For `NCCCN(CCCN)CCCN(CCCCN(CCCN(CCCN)CCCN)CCCN(CCCN)CCCN)CCCN(CCCN)CCCN` [DAB-Am-8, Polypropylenimine octaamine Dendrimer, generation 2.0,1,4-diaminobutane core], the pEC50 (HSV-1, strain E-377) was 7.05, the EC90 (HSV-1, strain E-377) was > 3.8 µM and the pEC50 [5] was 7.00. For the same compound, the EC90 [5] was > 3.8 µM, the pEC50 (HCMV, strain AD169; [6]) was 7.10 and the EC90 (HCMV, strain AD169; [6]) was > 3.8 µM. For the same compound, the “permeation of cell membranes” value (cell membrane) was “permeate cell membranes when complexed with free DNA”, the CC50 [4, 7] was 4.41 µM and the CC50 [4, 11] was 9.32 µM. For the same compound, the CC50 [4, 8] was 13 µM.
In the case of `Cl.Cl.Cl.Cl.NCCCNCCCCNCCCN` [spermine tetrahydrochloride], the “dint, internal experimental observations” value (DNA [3]; 0.5-100 mM) is given as 28.2-29.4 Å, the “dint (DNA condensation observed experimentally)” value (DNA [1]) is given as 28 Å and the “intracapsid DNA transition (DNA diffraction peak area vs temperature)” value (phage λ; WT DNA length phage λ, 10 mM MgCl2 Tris-buffer, 1 mM spermine (4+), 20-40° C.) is given as “no abrupt DNA transition is observed”.
For “Arg4+: poly-L-arginine peptide (SEQ ID NO: 21), Charge=+4 (RRRR; Synthetic Arg4+)”, the “dint, internal observations” value (DNA [3]; 1-2.5 mM) is given as 29.7-30.3 Å and the “dint (DNA condensation observed experimentally)” value (DNA [1]) is given as 29.8 Å.
In the case of `NCCCN(CCCN)CCCCN(CCCN)CCCN` [DAB-Am-4, Polypropylenimine tetramine dendrimer, generation 1,1,4-diaminobutane core, generation 1 solution], the pEC50 (HSV-1, strain E-377) was 6.32, the EC90 (HSV-1, strain E-377) was 3.49 µM and the pEC50 [5] was < 4.72. The EC90 [5] was > 19 µM, the pEC50 (HCMV, strain AD169; [6]) was 6.29 and the EC90 (HCMV, strain AD169; [6]) was 3.11 µM. For the same compound, the “permeation of cell membranes” value (cell membrane) was “permeate cell membranes when complexed with free DNA”, the CC50 [4, 7] was 15.4 µM and the CC50 [4, 11] was 28.6 µM. The CC50 [4, 8] was 38.1 µM.
